Source: PubChem BioAssay (NCI)
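1) Cells in 96-well plates. 2) Compound, 48 h, 5 concentrations. 3) Linear interpolation between surrounding doses. 4) Unreached endpoint = highest concentration. Definition used: TGI = concentration required for complete inhibition of growth.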

Experiments:
Experiment in all cases: NCI tumour cell line growth inhibition, 48 h
[1] = test system: SF-268 CNS
[2] = test system: SK-MEL-28 melanoma
[3] = test system: CCRF-CEM leukemia
[4] = test system: NCI-H23 lung
[5] = test system: MOLT-4 leukemia
[6] = test system: LOX IMVI melanoma
[7] = test system: SK-OV-3 ovarian
[8] = test system: 786-0 renal
[9] = test system: UACC-62 melanoma
[10] = test system: MALME-3M melanoma
[11] = test system: KM12 colon
[12] = test system: HCT-15 colon
[13] = test system: T-47D breast
[14] = test system: HS 578T breast
[15] = test system: RPMI-8226 leukemia
[16] = test system: SNB-75 CNS
[17] = test system: K-562 leukemia
[18] = test system: NCI/ADR-RES ovarian
[19] = test system: OVCAR-5 ovarian
[20] = test system: TK-10 renal
[21] = test system: HOP-92 NSCLC
[22] = test system: HOP-62 NSCLC
[23] = test system: SK-MEL-2 melanoma
[24] = test system: COLO 205 colon
[25] = test system: IGROV1 ovarian
[26] = test system: MDA-N
[27] = test system: SF-295 CNS
[28] = test system: ACHN renal
[29] = test system: MCF7 breast
[30] = test system: SR leukemia
[31] = test system: NCI-H522 lung
[32] = test system: EKVX NSCLC
[33] = test system: A549 NSCLC
[34] = test system: OVCAR-3 ovarian
[35] = test system: MDA-MB-231 breast
[36] = test system: PC-3 prostate
[37] = test system: SF-539 CNS
[38] = test system: RXF 393 renal
[39] = test system: HL-60(TB) leukemia
[40] = test system: DU-145 prostate
[41] = test system: SK-MEL-5 melanoma
[42] = test system: A498 renal
[43] = test system: SN12C renal
[44] = test system: OVCAR-4 ovarian
[45] = test system: SNB-19 CNS
[46] = test system: HCT-116 colon
[47] = test system: M14 melanoma
[48] = test system: NCI-H460 lung
[49] = test system: UACC-257 melanoma
[50] = test system: SW-620 colon
[51] = test system: OVCAR-8 ovarian
[52] = test system: HCC-2998 colon
[53] = test system: U251 CNS
[54] = test system: UO-31 renal
[55] = test system: NCI-H226 lung
[56] = test system: BT-549 breast
[57] = test system: HT29 colon
[58] = test system: MDA-MB-435
[59] = test system: CAKI-1 renal

Which results are given for `O=C1CC(c2ccccc2Cl)C2(C(=O)NC(=S)NC2=O)C(c2ccccc2Cl)C1` (centres undefined)?
TGI [1]: 38.3 µM; TGI [2]: > 100 µM; TGI [3]: > 100 µM; TGI [4]: 37.7 µM; TGI [5]: > 100 µM; TGI [6]: 36.4 µM; TGI [7]: > 100 µM; TGI [8]: 51 µM; TGI [9]: 40.8 µM; TGI [10]: 31 µM; TGI [11]: 27.1 µM; TGI [12]: 53.6 µM; TGI [13]: 93.5 µM; TGI [14]: 22.8 µM; TGI [15]: > 100 µM; TGI [16]: > 100 µM; TGI [17]: > 100 µM; TGI [18]: > 100 µM; TGI [19]: > 100 µM; TGI [20]: 0.206 µM; TGI [21]: 32.1 µM; TGI [22]: > 100 µM; TGI [23]: 62 µM; TGI [24]: > 100 µM; TGI [25]: 77 µM; TGI [26]: > 100 µM; TGI [27]: 66.6 µM; TGI [28]: 55.7 µM; TGI [29]: 40.2 µM; TGI [30]: > 100 µM; TGI [31]: 99.3 µM; TGI [32]: > 100 µM; TGI [33]: 65.5 µM; TGI [34]: 60 µM; TGI [35]: 72.8 µM; TGI [36]: 81.8 µM; TGI [37]: > 100 µM; TGI [38]: 32.8 µM; TGI [39]: > 100 µM; TGI [40]: > 100 µM; TGI [41]: 58.6 µM; TGI [42]: 40.4 µM; TGI [43]: 65.8 µM; TGI [44]: > 100 µM; TGI [45]: 30.9 µM; TGI [46]: 41 µM; TGI [47]: 38.9 µM; TGI [48]: 42.9 µM; TGI [49]: 30.6 µM; TGI [50]: > 100 µM; TGI [51]: 49.6 µM; TGI [52]: 52.1 µM; TGI [53]: 32.8 µM; TGI [54]: > 100 µM; TGI [55]: 71.4 µM; TGI [56]: 98.2 µM; TGI [57]: > 100 µM; TGI [58]: 34.4 µM

With `Clc1ccc(-c2noc(CN3CCCCC3)n2)cc1` as the compound, how does the TGI [1] read?
Its TGI is > 100 µM.

What about the TGI [2] of the same compound?
The TGI was > 100 µM.

And the TGI [3]?
Its TGI is > 100 µM.

What about the TGI [4] of the same compound?
Its TGI is > 100 µM.

And the TGI [5]?
The TGI was > 100 µM.

What about the TGI [7] of the same compound?
The TGI was > 100 µM.

And the TGI [8]?
The TGI was > 100 µM.

What about the TGI [9] of the same compound?
The TGI was > 100 µM.

And the TGI [10]?
The TGI was > 100 µM.

And the TGI [11]?
The TGI was > 100 µM.

And the TGI [12]?
The TGI was > 100 µM.

What about the TGI [13] of the same compound?
The TGI was > 100 µM.

And the TGI [14]?
The TGI was > 100 µM.

What about the TGI [15] of the same compound?
Its TGI is > 100 µM.

What about the TGI [16] of the same compound?
The TGI was > 100 µM.

What about the TGI [17] of the same compound?
Its TGI is > 100 µM.

What about the TGI [18] of the same compound?
Its TGI is > 100 µM.

What about the TGI [19] of the same compound?
Its TGI is > 100 µM.

And the TGI [20]?
The TGI was > 100 µM.

What about the TGI [21] of the same compound?
The TGI was > 100 µM.

And the TGI [22]?
Its TGI is > 100 µM.

What about the TGI [23] of the same compound?
Its TGI is > 100 µM.

What about the TGI [24] of the same compound?
Its TGI is > 100 µM.

And the TGI [25]?
The TGI was > 100 µM.

And the TGI [26]?
The TGI was > 100 µM.

And the TGI [27]?
The TGI was > 100 µM.

What about the TGI [28] of the same compound?
Its TGI is > 100 µM.

What about the TGI [29] of the same compound?
Its TGI is > 100 µM.

What about the TGI [30] of the same compound?
Its TGI is > 100 µM.

And the TGI [31]?
The TGI was > 100 µM.

And the TGI [32]?
The TGI was > 100 µM.

What about the TGI [33] of the same compound?
Its TGI is > 100 µM.

What about the TGI [34] of the same compound?
The TGI was > 100 µM.

And the TGI [59]?
Its TGI is > 100 µM.

And the TGI [35]?
Its TGI is > 100 µM.

What about the TGI [36] of the same compound?
The TGI was > 100 µM.

What about the TGI [37] of the same compound?
The TGI was > 100 µM.

And the TGI [38]?
Its TGI is > 100 µM.

And the TGI [39]?
The TGI was > 100 µM.

And the TGI [40]?
The TGI was > 100 µM.

And the TGI [41]?
The TGI was > 100 µM.

And the TGI [42]?
The TGI was > 100 µM.

And the TGI [43]?
Its TGI is > 100 µM.

And the TGI [44]?
The TGI was > 100 µM.

And the TGI [45]?
Its TGI is > 100 µM.

And the TGI [46]?
The TGI was > 100 µM.

And the TGI [47]?
Its TGI is > 100 µM.

What about the TGI [48] of the same compound?
Its TGI is > 100 µM.

What about the TGI [49] of the same compound?
Its TGI is > 100 µM.

What about the TGI [50] of the same compound?
Its TGI is > 100 µM.

And the TGI [51]?
Its TGI is > 100 µM.

What about the TGI [52] of the same compound?
The TGI was > 100 µM.

And the TGI [53]?
The TGI was > 100 µM.

And the TGI [54]?
Its TGI is > 100 µM.

And the TGI [55]?
The TGI was > 100 µM.

What about the TGI [56] of the same compound?
Its TGI is > 100 µM.

What about the TGI [57] of the same compound?
The TGI was > 100 µM.

What about the TGI [58] of the same compound?
The TGI was > 100 µM.

With `O=S(=O)(c1ccccc1)[C@H]1[C@@H]2O[C@@H]2C[C@@H]1O` as the compound, how does the TGI [1] read?
The TGI was > 100 µM.

What about the TGI [2] of the same compound?
The TGI was > 100 µM.

What about the TGI [3] of the same compound?
The TGI was > 100 µM.

What about the TGI [4] of the same compound?
The TGI was > 100 µM.

What about the TGI [5] of the same compound?
The TGI was > 100 µM.

What about the TGI [7] of the same compound?
The TGI was > 100 µM.

What about the TGI [8] of the same compound?
Its TGI is > 100 µM.

What about the TGI [9] of the same compound?
Its TGI is > 100 µM.

What about the TGI [10] of the same compound?
Its TGI is > 100 µM.

And the TGI [11]?
Its TGI is > 100 µM.

And the TGI [12]?
The TGI was > 100 µM.

What about the TGI [13] of the same compound?
Its TGI is > 100 µM.

And the TGI [14]?
Its TGI is > 100 µM.

And the TGI [15]?
Its TGI is > 100 µM.

What about the TGI [16] of the same compound?
The TGI was > 100 µM.

What about the TGI [17] of the same compound?
The TGI was > 100 µM.

And the TGI [18]?
Its TGI is > 100 µM.

And the TGI [19]?
Its TGI is > 100 µM.

What about the TGI [20] of the same compound?
The TGI was > 100 µM.

What about the TGI [21] of the same compound?
Its TGI is > 100 µM.

And the TGI [22]?
The TGI was > 100 µM.

What about the TGI [23] of the same compound?
Its TGI is > 100 µM.

And the TGI [24]?
The TGI was > 100 µM.

And the TGI [25]?
Its TGI is > 100 µM.

What about the TGI [26] of the same compound?
Its TGI is > 100 µM.

What about the TGI [27] of the same compound?
The TGI was > 100 µM.

And the TGI [28]?
The TGI was > 100 µM.

What about the TGI [29] of the same compound?
Its TGI is > 100 µM.

And the TGI [30]?
Its TGI is > 100 µM.

What about the TGI [31] of the same compound?
The TGI was > 100 µM.

And the TGI [32]?
Its TGI is > 100 µM.

And the TGI [33]?
The TGI was > 100 µM.

And the TGI [34]?
Its TGI is > 100 µM.

And the TGI [59]?
Its TGI is > 100 µM.

And the TGI [35]?
The TGI was > 100 µM.

And the TGI [36]?
Its TGI is > 100 µM.

What about the TGI [37] of the same compound?
The TGI was > 100 µM.

What about the TGI [38] of the same compound?
The TGI was > 100 µM.

What about the TGI [39] of the same compound?
The TGI was > 100 µM.

What about the TGI [40] of the same compound?
Its TGI is > 100 µM.

And the TGI [41]?
Its TGI is > 100 µM.

What about the TGI [42] of the same compound?
Its TGI is > 100 µM.

What about the TGI [43] of the same compound?
Its TGI is > 100 µM.

What about the TGI [44] of the same compound?
The TGI was > 100 µM.

And the TGI [45]?
The TGI was > 100 µM.

And the TGI [46]?
The TGI was > 100 µM.

What about the TGI [47] of the same compound?
Its TGI is > 100 µM.

What about the TGI [48] of the same compound?
The TGI was > 100 µM.

And the TGI [49]?
The TGI was > 100 µM.

And the TGI [50]?
The TGI was > 100 µM.

And the TGI [51]?
Its TGI is > 100 µM.

What about the TGI [52] of the same compound?
The TGI was > 100 µM.

What about the TGI [53] of the same compound?
Its TGI is > 100 µM.

And the TGI [54]?
The TGI was > 100 µM.

And the TGI [55]?
The TGI was > 100 µM.

What about the TGI [56] of the same compound?
The TGI was > 100 µM.

What about the TGI [57] of the same compound?
Its TGI is > 100 µM.

What about the TGI [58] of the same compound?
Its TGI is > 100 µM.
